Test results reported in US11535872B2, “Microbial strains and uses thereof” (priority 2017, dated 2022).
Like-named read-outs stand apart in the source and are kept apart here.

Legend:
Type in all cases: cell-based, Candida tropicalis
Y6604 (NCYC 4190) = experiment: Xylose utilisation of Y6604 in the presence of increased inhibitor concentrations; conditions: high or increasing inhibitor concentrations, minimal media, shake flasks
Experimental: FIG. 4 show graphs illustrating xylose utilisation profiles of Y6604 (NCYC 4190) in the presence of increased inhibitor concentrations. Graphs A, B, C, D, E and F represent strain performance in the presence of increasing concentrations of vanillin (VAN), transcinnamic acid (TRANSC), hydroxyl-benzaldehyde (HBA), syringaldehyde (S), furfural (F) and hydroxyl-methyl furfural (HMF) respectively. Indicated values in the legend represent concentrations in mg/100 mL. Xylose values are the mean of two replicates in minimal media in shake flasks;
Strain Y6604 (NCYC 4190) was compared with other xylose-utilizing isolates from the gut of click beetle to assess its inhibitor tolerance and xylose to xylitol conversion. […] Despite slower Y6604 (NCYC 4190) growth in corn stover hydrolysate, xylose consumption and subsequent xylitol production was largely unaffected when compared to other isolates (FIG. 2 A, B) and increased amounts of the sugar alcohol at a comparatively higher rate of production were apparent in hydrolysates obtained from Miscanthus (FIG. 2 C, D) and wheat straw (FIG. 2 E, F). Phylogenetic analysis of the D1/D2 domain confirmed strain identity to be Candida tropiclis (FIG. 3). Having observed the enhanced efficacy of Y6604 (NCYC 4190) in hydrolysates with high inhibitor loadings, the isolate's tolerance threshold to common inhibitors by measuring xylose uptake rates (FIG. 4) was then assessed.

ΔΔXyl2 [1] = conditions: WSH; for starting xylose converted by ΔΔXyl2 with co-substrate: maltose value by 72 hr
ΔΔXyl2 [2] = conditions: YNB media; for starting xylose attenuated/bioconverted by ΔΔXyl2 with co-substrate: binary mixture of xylose and co-substrate

| Molecule | effect on xylose utilisation/uptake (Y6604 (NCYC 4190)) | starting xylose converted by ΔΔXyl2 with co-substrate (ΔΔXyl2 [1]) | starting xylose attenuated/bioconverted by ΔΔXyl2 with co-substrate (ΔΔXyl2 [2]) | rate of xylose conversion by ΔΔXyl2 with co-substrate (ΔΔXyl2 [2]) | also measured |
| --- | --- | --- | --- | --- | --- |
| COc1cc(C=O)ccc1O [vanillin] | delayed xylose utilisation | – | – | – | – |
| O=C[C@H](O)[C@@H](O)[C@@H](O)[C@H](O)CO [galactose] | – | more than 90% | 34% | – | rate of xylose conversion by ΔΔXyl2 with co-substrate (ΔΔXyl2 [1]): 0.5 g/h; time to complete co-substrate exhaustion (ΔΔXyl2 [1]): ≤ 7 h; arabitol accumulation with co-substrate (ΔΔXyl2 [1]; compared to other potential co-substrates (FIG. 7G)): high amount of arabitol accumulation |
| O=Cc1ccc(CO)o1 [HMF, hydroxyl-methyl furfural] | enhance pentose uptake | – | – | – | – |
| O=C(CO)[C@@H](O)[C@H](O)[C@H](O)CO [fructose] | – | – | 54% | around 0.4 g xylose per hr | – |
| OCC(O)CO [glycerol] | – | around 94% | – | around 0.4 g xylose per hr | – |
| O=C(O)/C=C/c1ccccc1 [transcinnamic acid] | delayed xylose utilisation | – | – | – | – |
| O=Cc1ccco1 [furfural] | completely abolished xylose uptake | – | – | – | – |
| OC[C@H]1O[C@H](O[C@H]2[C@H](O)[C@@H](O)C(O)O[C@@H]2CO)[C@H](O)[C@@H](O)[C@@H]1O (mixture of isomers) [maltose] | – | more than 95% | 70% | 0.5 g xylose per hr | rate of xylose conversion by ΔΔXyl2 with co-substrate (ΔΔXyl2 [1]): 0.78 g/h |
| hydroxyl-benzaldehyde | delayed xylose utilisation | – | – | – | – |
| COc1cc(C=O)cc(OC)c1O [syringaldehyde] | delayed xylose utilisation | – | – | – | – |
